Calls of active or inactive are those of the source. The rule behind the calls is not given here. Square brackets hold non-standard residues; d marks the D form. Peptide text beside a SMILES is read from it. ξ: configuration not given here. Dmt = Cc1cc(O)cc(C)c1C[C@H](N)C(=O)O; ξTic = O=C(O)C1Cc2ccccc2CN1
Target: T1, Mu-type opioid receptor (Cavia porcellus, UniProt P97266)
Experiment: Negative logarithm of the molar concentration for agonist activity at Opioid receptor mu 1 was determined in guinea pig ileum
Assay type: functional, tissue-based
Details: not given

T1 sequence (P97266 whole entry): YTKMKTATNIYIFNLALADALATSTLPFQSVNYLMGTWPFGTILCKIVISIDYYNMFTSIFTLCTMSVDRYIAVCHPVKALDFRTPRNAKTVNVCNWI

Structure (SMILES) | EC50
Cc1cc(O)cc(C)c1C[C@H](N)C(=O)N1Cc2ccccc2CC1C(N)=O (some centres undefined) (H-[Dmt]-[ξTic]-NH2) | > 10000 nM
Cc1cc(O)cc(C)c1C[C@H](N)C(=O)N1Cc2ccccc2CC1CO (some centres undefined) | > 10000 nM

Target: Delta-type opioid receptor (Mus musculus) (UniProt P32300)
Experiment: Negative logarithm of the molar concentration of delta receptor was determined in mouse vas deferens; i represents inactivity up to 1 mM
Assay type: functional
Details: not given

Chain of Delta-type opioid receptor (Mus musculus) (P32300 whole entry): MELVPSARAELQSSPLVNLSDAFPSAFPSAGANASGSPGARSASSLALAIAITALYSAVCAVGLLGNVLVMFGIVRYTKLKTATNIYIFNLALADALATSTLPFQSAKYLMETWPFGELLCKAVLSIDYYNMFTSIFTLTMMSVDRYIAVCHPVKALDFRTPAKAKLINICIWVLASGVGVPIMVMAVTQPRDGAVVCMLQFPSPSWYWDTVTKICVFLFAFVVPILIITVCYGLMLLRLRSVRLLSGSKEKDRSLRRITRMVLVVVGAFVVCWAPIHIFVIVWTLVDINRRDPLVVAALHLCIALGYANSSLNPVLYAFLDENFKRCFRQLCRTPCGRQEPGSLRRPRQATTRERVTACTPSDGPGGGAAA

Structure (SMILES) | Log EC50
Cc1cc(O)cc(C)c1C[C@H](N)C(=O)N1Cc2ccccc2CC1C(N)=O (some centres undefined) (H-[Dmt]-[ξTic]-NH2) | inactive
Cc1cc(O)cc(C)c1C[C@H](N)C(=O)N1Cc2ccccc2CC1CO (some centres undefined) | inactive
Cc1cc(O)cc(C)c1C[C@H](N)C(=O)N1CCc2ccccc2C1 | inactive

Target: T2, Delta-type opioid receptor (Mus musculus, UniProt P32300)
Experiment: (§1) Negative logarithm of the molar concentration of delta receptor was determined in mouse vas deferens
Details: read-out: pA2 (converted)

T2 sequence (P32300 whole entry): as above

Structure (SMILES) | Kb
Cc1cc(O)cc(C)c1C[C@H](N)C(=O)N1Cc2ccc(F)cc2CC1C(=O)O (some centres undefined) | 35.5 nM
Cc1cc(O)cc(C)c1C[C@H](N)C(=O)N1Cc2ccccc2CC1COCc1ccccc1 (some centres undefined) | 13.5 nM
Cc1cc(O)cc(C)c1C[C@H](N)C(=O)N1CCc2ccc(F)cc2C1 | 617 nM
Cc1cc(O)cc(C)c1C[C@H](N)C(=O)N1CCc2ccccc2C1 | 38.9 nM

Target: T2, Delta-type opioid receptor
Experiment: as §1
Assay type: functional
Details: read-out: pA2 (converted)

Structure (SMILES) | Kb
Cc1cc(O)cc(C)c1C[C@H](N)C(=O)N1Cc2ccccc2CC1C(N)=O (some centres undefined) (H-[Dmt]-[ξTic]-NH2) | 63.1 nM
Cc1cc(O)cc(C)c1C[C@H](N)C(=O)N1Cc2ccccc2CC1CO (some centres undefined) | 100 nM

Target: T1, Mu-type opioid receptor
Experiment: Negative logarithm of the molar concentration for agonist activity at mu receptor was determined in guinea pig ileum
Assay type: functional, tissue-based
Details: not given

Structure (SMILES) | EC50
Cc1cc(O)cc(C)c1C[C@H](N)C(=O)N1Cc2ccc(F)cc2CC1C(=O)O (some centres undefined) | 813 nM
Cc1cc(O)cc(C)c1C[C@H](N)C(=O)N1Cc2ccccc2CC1COCc1ccccc1 (some centres undefined) | 525 nM
C[C@@H](NC(=O)[C@@H](N)Cc1ccc(O)cc1)C(=O)N[C@@H](Cc1ccccc1)C(=O)NCC(=O)N[C@@H](Cc1ccc(O)cc1)C(=O)N1CCC[C@H]1C(=O)N[C@@H](CO)C(N)=O [DERMORPHIN] | 1.58 nM
Cc1cc(O)cc(C)c1C[C@H](N)C(=O)N1CCc2ccc(F)cc2C1 | 631 nM
Cc1cc(O)cc(C)c1C[C@H](N)C(=O)N1CCc2ccccc2C1 | 490 nM

Target: Delta-type opioid receptor (Mus musculus) (UniProt P32300)
Details: not given

Structure (SMILES) | Log EC50
Cc1cc(O)cc(C)c1C[C@H](N)C(=O)N1Cc2ccc(F)cc2CC1C(=O)O (some centres undefined) | inactive
Cc1cc(O)cc(C)c1C[C@H](N)C(=O)N1Cc2ccccc2CC1COCc1ccccc1 (some centres undefined) | inactive
Cc1cc(O)cc(C)c1C[C@H](N)C(=O)N1CCc2ccc(F)cc2C1 | inactive

Reference: ChEMBL document CHEMBL1132844, “Assessment of substitution in the second pharmacophore of Dmt-Tic analogues” (Bioorg Med Chem Lett, 2000)
